This experiment has as its system GFP-tagged TDP-43. In words: Distribution of GFP-tagged TDP-43 in M17 cells. The class given is cell-based, human. On the set-up: distribution of GFP-tagged TDP-43 / translocation of GFP-tagged TDP-43 with Nilotinib or Bosutinib: unit of the concentration uncertain. On the procedure: Human neuroblastoma M17 cells (seeding density 2×10^5 cells) were grown in 24 well dishes (Falcon) to 70% confluence in Dulbecco's Modified Eagle Medium (DMEM; Invitrogen) plus 10% (v/v) heat-inactivated fetal bovine serum (Invitrogen), penicillin/streptomycin, and 2 mM L-glutamine at 37° C. and 5% CO2, washed twice in phosphate-buffered saline (PBS). Transient transfection was performed with 3 μg parkin cDNA or 3 μg TDP-43 cDNA, or 3 μg LacZ cDNA. Cells were treated with 5 μM tubacin for 24 hours and DAPI stained in 12 well dishes. Cells were harvested 24 hours after transfection. Transfection was performed in DMEM without serum using Lipofectamine 2000 (Invitrogen) according to the manufacturer's protocol. […] Western blot was performed on NuPAGE 4-12% Bis-Tris gel (Invitrogen). Protein estimation was performed using the microscale BioRad protein assay (BioRad Laboratories Inc, Hercules, Calif., USA).
To ascertain that both parkin and HDAC6 are required for TDP-43 translocation, GFP-tagged TDP-43 was expressed in M17 neuroblastoma cells in the presence of wild type or loss-of-function mutant (T240R) parkin, and treated with 5 μM selective HDAC6 inhibitor for 24 hours.
The following data support these conclusions.

This note sets out measurements from patent US10709704B2, “Treating neural disease with tyrosine kinase inhibitors” (GEORGETOWN UNIVERSITY, priority 2012, dated 2020).

On to `O=C(CCCCCCC(=O)Nc1ccc([C@H]2O[C@@H](CSc3nc(-c4ccccc4)c(-c4ccccc4)o3)C[C@@H](c3ccc(CO)cc3)O2)cc1)NO` [Tubacin], for which the “GFP fluorescence (GFP-TDP-43) in the cytosol” value (5 μM for 24 hours, presence or absence of parkin) is recorded as “did not lead to GFP fluorescence in the cytosol”. Where the note is “Tubacin (5 µM) for additional 24 hrs”, the “translocation of GFP-tagged TDP-43 with Nilotinib or Bosutinib” value was “impairs translocation”.
